From patent US20130065818A1, “Arylamide Compounds And Compositions And Uses Thereof” (POLYMEDIX, priority 2006, published 2013)
≈ marks a conversion by molar mass, not a printed value. Entries after “also recorded” stand apart in the source; their conditions may differ.

What was measured:
[1] = tested on: Fluoroquinolone-Resistant Methicillin-Resistant Staphylococcus aureus Strain K950; experiment: MIC characterization of strain K950; format: cell-based; conditions: read-out: MIC (Minimum Inhibitory Concentration)
[2] = tested on: fluoroquinolone-resistant, methicillin-resistant Staphylococcus aureus (K950); experiment: NZW rabbit keratitis model, corneal colony counts; format: in vivo; conditions: for Statistical comparison of corneal colony counts (< = significantly fewer colony counts): drops every 15 min
Excerpt: (§1) One purpose of the following experiments was to compare the efficacy of 1% Oligomer 2, 0.5% Oligomer 2, and 5% vancomycin in the treatment of a fluoroquinolone-resistant, methicillin-resistant Staphylococcus aureus infection in the NZW rabbit keratitis model with or without intact corneal epithelia.
Nothing was done to the right eyes.
as §1, with “0.25%” for “1%”, “with and without 0.005% benzalkonium chloride,” for “0.5% Oligomer 2,”, “epithelia. The 0.005% benzalkonium chloride has been added to try to increase the penetration of 0.25% Oligomer 2 through the corneal epithelium.” for “epithelia.”
One purpose of the following experiments was to determine the efficacy of 0.25% Oligomer 4, with and without 200 μM Farnesol, and 200 μM Farnesol in the treatment of a fluoroquinolone-resistant and methicillin-resistant Staphylococcus aureus infection in the NZW rabbit keratitis model with or without intact corneal epithelia. The 200 μM Farnesol has been added to try to increase the efficacy and penetration of 0.25% Oligomer 4 through the corneal epithelium.

[3] = NZW rabbit keratitis model, clinical evaluation (Total Ocular Score); conditions: Oligomer 2 study, N 3
Experimental: Fifteen rabbits were received from Myrtles' Rabbitry, Thompson Station, TN. The clinical isolate of fluoroquinolone-resistant, methicillin-resistant (MRSA) Staphylococcus aureus (K950) was subcultured on 5% sheep blood agar and incubated at 37° C. in 6% CO2 overnight. The next morning, the MRSA strain was suspended in sterile trypticase soy broth to a 0.5 McFarland Standard, containing approximately 5×10^8 cfu/ml of bacteria. The absorbance of the suspension was measured at 650 nm using a Beckman DU-70 spectrophotometer. OD readings of 0.07 corresponded to 5×10^8 cfu/ml of bacteria. This concentration was appropriately diluted in sterile trypticase soy broth to provide the inoculum of approximately 1,000 (1.0×10^3) cfu/eye in 25 μl. Colony counts were performed on the inoculum to determine the actual cfu inoculated. Following general anesthesia with ketamine and xylazine and topical anesthesia with proparacaine and prior to bacterial inoculation in the left eyes, 6 mm areas of the corneal epithelia was removed centrally with an Amoils epithelial scrubber. Nothing was done to the right eyes. The 15 rabbits were then inoculated intrastromally in both eyes with 25 μl of the bacterial dilution of approximately 10^3 cfu/eye of the bacteria. The bacterial inoculation of the left eyes was directly under the epithelial defect created by the Amoils epithelial scrubber. The epithelia were removed in the left corneas in order to determine whether this layer of the cornea is a barrier for Oligomer 2 penetration when compared to the right cornea with an intact epithelium. A colony count was done on the inoculum to determine the actual cfu inoculated. The rabbits were immediately treated with analgesia in the form of and intramuscular injection of ketoprofen, 1.5 mg/kg. After 4 hours, the 15 rabbits were divided into 4 treatment groups and one untreated control group sacrificed at the onset of therapy. Both eyes of each rabbit of the treatment groups were treated with one 37 μl drop of the coded solutions or control Saline or 1 drop of vancomycin from its dropper bottle. The Oligomer 2 concentrations were masked and labeled as 1 and 2. The masked concentrations were 1% Oligomer 2 and 0.5% Oligomer 2 but the specific concentrations of solutions were not known to the lab workers who carried out the experiment. The vancomycin and control (Tris-Buffered Saline) were not masked.
Treatment was scheduled for every 15 minutes for 5 hours (21 total doses). However, PMX-1 and PMX-2 were exhausted after the 19th dose. Therefore, the actual treatment was 15 minutes for 4.5 hours (19 total doses). The 3 rabbits in group V were sacrificed 4 hours PI and large 9.5 mm buttons were removed from the corneas. These were placed in 1 ml of PBS and kept on ice. The corneal buttons were homogenized for 25 seconds on ice using the motorized homogenizer. After homogenization, colony counts were done on the homogenates using 5% sheep blood agar plates to determine the amount of bacteria contained in the corneas at the onset of therapy. Following the completion of therapy, the eyes were examined for clinical signs of infection. One hour after the final treatment, the treated rabbits (Groups I-IV) were sacrificed and large 9.5 mm buttons were removed from the corneas. These were placed in 1 ml of PBS and kept on ice. The corneal buttons were homogenized for 25 seconds on ice using the motorized homogenizer. After homogenization, colony counts were performed on the homogenates using 5% sheep blood agar plates to determine the amount of bacteria contained in the corneas after treatment. The next morning, the plates were counted and the number of cfu/eye of Staphylococcus aureus was determined for each cornea.
Fifteen rabbits were received from Myrtles' Rabbitry, Thompson Station, TN.

CN[C@H](CC(C)C)C(=O)N[C@H]1C(=O)N[C@@H](CC(N)=O)C(=O)N[C@H]2C(=O)N[C@H]3C(=O)N[C@H](C(=O)N[C@H](C(=O)O)c4cc(O)cc(O)c4-c4cc3ccc4O)[C@H](O)c3ccc(c(Cl)c3)Oc3cc2cc(c3O[C@@H]2O[C@H](CO)[C@@H](O)[C@H](O)[C@H]2O[C@H]2C[C@](C)(N)[C@H](O)[C@H](C)O2)Oc2ccc(cc2Cl)[C@H]1O [Vancomycin, reference compound]
MIC [1]: 2 µg/mL (≈ 1.38 µM)
Statistical comparison of corneal colony counts (< = significantly fewer colony counts) ([2]; Ker-1 (Example 9), abraded (removed) epithelium, 19 doses): Vancomycin<Saline Control
Statistical comparison of corneal colony counts (< = significantly fewer colony counts) ([2]; Ker-1 (Example 9), intact epithelium, 19 doses): Vancomycin<Saline Control; also recorded: Vancomycin<PMX-1; also recorded: Vancomycin<PMX-2
Statistical comparison of corneal colony counts (< = significantly fewer colony counts) ([2]; Ker-2 (Example 10), abraded (removed) epithelium, 21 doses): Vancomycin<Saline Control
Statistical comparison of corneal colony counts (< = significantly fewer colony counts) ([2]; Ker-2 (Example 10), intact epithelium, 21 doses): Vancomycin<Saline Control; also recorded: Vancomycin<PMX-B
Effect of Abraded Epithelium on colony counts (Intact vs. Abraded, two sample T-test) ([2]; Log10 CFU/ml, < = significantly fewer colony counts): Abraded = Intact
Effect of Abraded Epithelium on Effectiveness of Each Test Solution (colony counts, abraded vs. intact) ([2]; Oligomer 2 study, two sample T-test, < = significantly fewer colony counts): Abraded = Intact
Total Ocular Score, Median ([3]; abraded epithelium): 9.5
Total Ocular Score, Median ([3]; intact epithelium): 9.5
